Measurements taken from patent publication US9518046B2 (Calitor Sciences, LLC, priority 2015, dated 2016).

Assay: Pharmacokinetics after intravenous and oral administration in rats
Assay type: in vivo
Conditions: for CL/F / bioavailability: Rats; for CL/F: iv dosing, dose 1 mg/kg (0.5 for Ex. 1, 10, 11, 35; 0.48 for Ex. 24); for AUC(0-t) / half-life / Vd / bioavailability: rat, plasma; for AUC(0-t) / half-life / Vd: iv, 1 mg/kg; for Vd: read-out: Vss; for bioavailability: oral (p.o.) generally 5 or 10 mg/kg versus iv dosing
Description: The LC/MS/MS system used in the analysis consists of an Agilent 1200 Series vacuum degasser, binary pump, well-plate autosampler, thermostatted column compartment, the Agilent G6430 Triple Quadrupole Mass Spectrometer with an electrosprayionization (ESI) source. Quantitative analysis was carried out using MRM mode. The parameters for MRM transitions are in the Table A.
An Agilent XDB-C18, 2.1×30 mm, 3.5 M column was used for the analysis. 5 L of the samples were injected. Analysis condition: The mobile phase was 0.1% formic acid in water (A) and 0.1% formic acid in methanol (B). The flow rate was 0.4 mL/min. And the gradient of Mobile phase was in the Table B.
Alternatively, an Agilent 6330 series LC/MS/MS spectrometer equipped with G1312A binary pumps, a G1367A autosampler and a G1314C UV detector were used in the analysis. An ESI source was used on the LC/MS/MS spectrometer. The analysis was done in positive ion mode as appropriate and the MRM transition for each analyte was optimized using standard solution. A Capcell MP-C18 100×4.6 mm I.D., […] column (Phenomenex, Torrance, Calif., USA) was used during the analysis. The mobile phase was 5 mM ammonia acetate, 0.1% MeOH in water (A): 5 mM ammonia acetate, 0.1% MeOH in acetonitrile (B) (70:30, v/v). The flow rate was 0.6 mL/min. Column was maintained at ambient temperature. 20 μL of the samples were injected.
The compounds disclosed herein are assessed in pharmacokinetic studies in mice, rats, dogs or monkeys. The compounds are administered as a water solution, 2% HPMC+1% TWEEN®80 in water solution, 5% DMSO+5% solutol in saline, 4% MC suspension or capsule. For the intravenous administration, the animals are generally given at 1 or 2 mg/kg dose. For the oral (p.o.) dosing, mice and rats are generally given 5 or 10 mg/kg dose, and dogs and monkeys are generally given 10 mg/kg dose. The blood samples (0.3 mL) are drawn at 0.25, 0.5, 1.0, 2.0, 3.0, 4.0, 6.0, 8.0, 12 and 24 h time points or 0.083, 0.25, 0.5, 1.0, 2.0, 4.0, 6.0, 8.0 and 24 h time points and centrifuged at 3,000 or 4000 rpm for 2 to 10 min. The plasma solutions are collected, stored at −20° C. or −70° C. until analyzed by LC/MS/MS as described above.

Structure (SMILES) | CL/F [mL/min/kg] | further results
CC[C@H](Nc1ncnc(N)c1-c1nc(C)no1)c1nc2cccc(Cl)c2c(=O)n1-c1ccccc1 [Ex. 3, (S)-2-(1-((6-amino-5-(3-methyl-1,2,4-oxadiazol-5-yl)pyrimidin-4-yl)amino)-propyl) 5-chloro-3-phenylquinazolin-4(3H)-one] | 70.8 | 
CC[C@H](Nc1ncnc(N)c1-c1nnc(C)o1)c1nc2cccc(C)c2c(=O)n1-c1ccccc1C (single isomer, unassigned) [Ex. 31] | 64.8 | 
CC[C@H](Nc1ncnc(N)c1-c1nnc(C)o1)c1nc2cccc(C)c2c(=O)n1C1CC1 [Ex. 20] | 77.3 | 
CC[C@H](Nc1ncnc(N)c1-c1ncn(C)n1)c1nc2cccc(F)c2c(=O)n1C1CC1 [Ex. 26, (S)-2-(1-((6-amino-5-(1-methyl-1H-1,2,4-triazol-3-yl)pyrimidin-4-yl)amino)propyl)-3-cyclopropyl-5-fluoroquinazolin-4(3H)-one] | 37 | 
CC[C@H](Nc1ncnc(N)c1-c1noc(C)n1)c1nc2cccc(C)c2c(=O)n1C1CC1 | 40.3 | 
CC[C@H](Nc1ncnc(N)c1-c1nnc(C)o1)c1nc2cccc(Cl)c2c(=O)n1-c1ccccc1C [Ex. 35, (S)-2-(1-((6-amino-5-(5-methyl-1,3,4-oxadiazol-2-yl)pyrimidin-4-yl)-amino)propyl)-5-chloro-3-(o-tolyl)quinazolin-4(3H)-one] | 53 | 
CC[C@H](Nc1ncnc(N)c1-c1ncn(C)n1)c1nc2cccc(Cl)c2c(=O)n1-c1ccccc1 [Ex. 32, (S)-2-(1-((6-amino-5-(1-methyl-H-1,2,4-triazol-3-yl)pyrimidin-4-yl)amino)-propyl)-5-chloro-3-phenylquinazolin-4(3H)-one] | 43.3 | 
CC[C@H](Nc1ncnc(N)c1-c1ccon1)c1nc2cccc(Cl)c2c(=O)n1C1CC1 [Ex. 14, (S)-2-(1-((6-amino-5-(isoxazol-3-yl)pyrimidin-4-yl)amino)propyl)-5-chloro-3-cyclopropylquinazolin-4(3H)-one] | 46.7 | 
CC[C@H](Nc1ncnc(N)c1C1=N[C@@H](C)CO1)c1nc2cccc(Cl)c2c(=O)n1-c1ccccc1 [Ex. 6] | 110 | 
CC[C@H](Nc1ncnc(N)c1-c1ccccn1)c1nc2cccc(Cl)c2c(=O)n1C1CC1 [Ex. 11, (S)-2-(1-((6-amino-5-(pyridin-2-yl)pyrimidin-4-yl)amino)propyl)-5-chloro-3-cyclopropylquinazolin-4(3H)-one] | 4.83 | 
CC[C@@H](Nc1ncnc(N)c1-c1nc(C)no1)c1nc2cccc(Cl)c2c(=O)n1C1CC1 [Ex. 19, (R)-2-(1-((6-amino-5-(3-methyl-1,2,4-oxadiazol-5-yl)pyrimidin-4-yl)amino)propyl)-5-chloro-3-cyclopropylquinazolin-4(3H)-one] | 127 | 
CC[C@H](Nc1ncnc(N)c1-c1nc(C)no1)c1nc2cccc(F)c2c(=O)n1C1CC1 [Ex. 23, (S)-2-(1-((6-amino-5-(3-methyl-1,2,4-oxadiazol-5-yl)pyrimidin-4-yl)amino)-propyl)-3-cyclopropyl-5-fluoroquinazolin-4(3H)-one] | 71.3 | 
CC[C@H](Nc1ncnc(N)c1-c1ncc(C)o1)c1nc2cccc(Cl)c2c(=O)n1C1CC1 [Ex. 7, (S)-2-(1-((6-amino-5-(5-methyloxazol-2-yl)pyrimidin-4-yl)amino)propyl)-5-chloro-3-cyclopropylquinazolin-4(3H)-one] | 54.8 | 
CC[C@H](Nc1ncnc(N)c1-c1ncnn1C)c1nc2cccc(Cl)c2c(=O)n1C1CC1 [Ex. 9, 2-((1S)-1-((6-amino-5-(1-methyl-1H-1,2,4-triazol-5-yl)pyrimidin-4-yl)amino)-propyl)-5-chloro-3-cyclopropylquinazolin-4(3H)-one] | 27.3 | 
CC[C@H](Nc1ncnc(N)c1-c1nc(C)no1)c1nc2ccccc2c(=O)n1-c1ccccc1F (single isomer, unassigned) [Ex. 22] | 159 | 

More lines, main results first:

CL/F [mL/min/kg] | Structure (SMILES) | further results
85.3 | CC[C@@H](Nc1ncnc(N)c1-c1ccon1)c1nc2cccc(Cl)c2c(=O)n1C1CC1 [Ex. 49, (R)-2-(1-((6-amino-5-(isoxazol-3-yl)pyrimidin-4-yl)amino)propyl)-5-chloro-3-cyclopropylquinazolin-4(3H)-one] | 
85.7 | CC[C@H](Nc1ncnc(N)c1-c1nc(C)co1)c1nc2cccc(Cl)c2c(=O)n1C1CC1 [Ex. 52, (S)-2-(1-((6-amino-5-(4-methyloxazol-2-yl)pyrimidin-4-yl)amino)propyl)-5-chloro-3-cyclopropylquinazolin-4(3H)-one] | 
19.8 | C[C@H](Nc1ncnc(N)c1-c1nnn(C)n1)c1nc2cccc(-c3cnn(C)c3)c2c(=O)n1C1CC1 [Ex. 75, (S)-2-(1-((6-amino-5-(2-methyl-2H-tetrazol-5-yl)pyrimidin-4-yl)amino)ethyl)-3-cyclopropyl-5-(1-methyl-1H-pyrazol-4-yl)quinazolin-4(3H)-one] | AUC(0-t): 841 ng·h/mL; half-life: 1.41 h; Vd: 2.01 L/kg; bioavailability: 72.5%
67.5 | CC[C@H](Nc1ncnc(N)c1-c1nc(C)no1)c1nc2cccc(C)c2c(=O)n1-c1ccccc1 [Ex. 37, (S)-2-(1-((6-amino-5-(3-methyl-1,2,4-oxadiazol-5-yl)pyrimidin-4-yl)amino)-propyl)-5-methyl-3-phenylquinazolin-4(3H)-one] | 
57.3 | CC[C@H](Nc1ncnc(N)c1-c1nnc(C)o1)c1nc2cccc(F)c2c(=O)n1-c1ccccc1 [Ex. 40, (S)-2-(1-((6-amino-5-(5-methyl-1,3,4-oxadiazol-2-yl)pyrimidin-4-yl)amino)-propyl)-5-fluoro-3-phenylquinazolin-4(3H)-one] | 
20.7 | CC[C@H](Nc1ncnc(N)c1-c1nnc(C)o1)c1nc2cccc(-c3cnn(C)c3)c2c(=O)n1-c1ccccc1 [Ex. 73, (S)-2-(1-((6-amino-5-(5-methyl-1,3,4-oxadiazol-2-yl)pyrimidin-4-yl)amino)propyl)-5-(1-methyl-1H-pyrazol-4-yl)-3-phenylquinazolin-4(3H)-one] | AUC(0-t): 807 ng·h/mL; half-life: 0.85 h; Vd: 1.44 L/kg; bioavailability: 104%
67.3 | CC[C@H](Nc1ncnc(N)c1-c1ccon1)c1nc2cccc(F)c2c(=O)n1C1CC1 [Ex. 48, (S)-2-(1-((6-amino-5-(isoxazol-3-yl)pyrimidin-4-yl)amino)propyl)-3-cyclopropyl-5-fluoroquinazolin-4(3H)-one] | 
55.8 | CC[C@H](Nc1ncnc(N)c1-c1nc(COC)n(C)n1)c1nc2cccc(Cl)c2c(=O)n1C1CC1 [Ex. 46] | 
74.7 | CCc1noc(-c2c(N)ncnc2N[C@@H](CC)c2nc3cccc(Cl)c3c(=O)n2C2CC2)n1 [Ex. 56, (S)-2-(1-((6-amino-5-(3-ethyl-1,2,4-oxadiazol-5-yl)pyrimidin-4-yl)amino)-propyl)-5-chloro-3-cyclopropylquinazolin-4(3H)-one] | 
86.7 | CC[C@H](Nc1ncnc(N)c1-c1ncn(C)n1)c1nc2cccc(Cl)c2c(=O)n1-c1ccc(F)cc1 [Ex. 50, (S)-2-(1-((6-amino-5-(1-methyl-1H-1,2,4-triazol-3-yl)pyrimidin-4-yl)amino)propyl)-5-chloro-3-(4-fluorophenyl)quinazolin-4(3H)-one] | 
82 | C[C@H](Nc1ncnc(N)c1-c1nnn(C)n1)c1nc2cccc(Cl)c2c(=O)n1C1CC1 [Ex. 42, (S)-2-(1-((6-amino-5-(2-methyl-2H-tetrazol-5-yl)pyrimidin-4-yl)amino)ethyl)-5-chloro-3-cyclopropylquinazolin-4(3H)-one] | 
71.3 | CC[C@H](Nc1ncnc(N)c1-c1nnc(C)o1)c1nc2cccc(C)c2c(=O)n1-c1ccccc1 [Ex. 38, (S)-2-(1-((6-amino-5-(5-methyl-1,3,4-oxadiazol-2-yl)pyrimidin-4-yl)amino)-propyl)-5-methyl-3-phenylquinazolin-4(3H)-one] | 
36.8 | CC[C@H](Nc1ncnc(N)c1-c1nnn(C)n1)c1nc2cccc(F)c2c(=O)n1-c1ccccc1 [Ex. 43, (S)-2-(1-((6-amino-5-(2-methyl-2H-tetrazol-5-yl)pyrimidin-4-yl)amino)-propyl)-5-fluoro-3-phenylquinazolin-4(3H)-one] | 
71.8 | CC[C@H](Nc1ncnc(N)c1-c1nc(C)no1)c1nc2cccc(Cl)c2c(=O)n1[C@@H]1C[C@@H]1F [Ex. 62] | 
